For this test, the target named is T1, acetylcholinesterase (Rattus norvegicus, UniProt P37136).
T1 construct: Using a rat brain homogenate as a source of acetylcholinesterase; from tissue; host or cells: rat brain homogenate
In words: Inhibitory action on acetylcholinesterase in vitro (rat brain homogenate, Ellman method). Format: biochemical. The note with it: acetylthiocholine substrate, DTNB, 412 nm, compounds dissolved in physiological saline, read-out: 50% inhibitory concentration (IC50) on acetylcholinesterase. The procedure:
Inhibitory action on acetylcholinesterase in vitro
Using a rat brain homogenate as a source of acetylcholinesterase, its esterase activity was measured in accordance with the method of Ellman et al^1). Acetylthiocholine as the substrate, sample and DTNB (5,5'-dithiobis(2-nitrobenzoic acid)) were added to the homogenate and incubated, whereby the produced thiocholine was reacted with DTNB and the resulting yellow product was measured for the change of absorbance at 412 nm to determine the acetylcholinesterase activity.
Each of the following compounds was used after dissolved in physiological saline.
For orientation: In Ellman's method for cholinesterases, released thiocholine reacts with DTNB.

Where a name gives a salt, the structure may show the parent alone.

T1 sequence (P37136 32-614): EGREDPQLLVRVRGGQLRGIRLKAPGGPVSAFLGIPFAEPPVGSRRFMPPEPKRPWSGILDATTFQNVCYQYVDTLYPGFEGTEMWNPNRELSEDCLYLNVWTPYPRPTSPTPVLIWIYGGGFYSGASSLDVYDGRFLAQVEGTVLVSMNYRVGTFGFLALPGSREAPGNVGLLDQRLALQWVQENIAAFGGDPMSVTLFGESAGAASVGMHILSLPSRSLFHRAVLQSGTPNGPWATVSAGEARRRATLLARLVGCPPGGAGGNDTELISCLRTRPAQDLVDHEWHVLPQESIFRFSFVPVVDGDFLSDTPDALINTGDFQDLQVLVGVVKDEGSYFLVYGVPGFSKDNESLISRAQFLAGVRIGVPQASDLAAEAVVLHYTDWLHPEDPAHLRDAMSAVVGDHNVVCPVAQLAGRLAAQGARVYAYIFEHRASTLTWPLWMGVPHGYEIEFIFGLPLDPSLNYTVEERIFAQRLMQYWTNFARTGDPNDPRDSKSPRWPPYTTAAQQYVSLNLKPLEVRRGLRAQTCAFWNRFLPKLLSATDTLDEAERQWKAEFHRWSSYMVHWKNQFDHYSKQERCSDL

As to `COc1cc2c(cc1OC)C(=O)C(F)(CC1CCN(Cc3ccccc3)CC1)C2` (stereo not shown) [Compound 1, 1-benzyl-4-[5,6-dimethoxy-2-fluoro-1-indanon)-2-yl]methylpiperidine hydrochloride], the IC50 came to 1.3 nM.

Source of the values: US6277866A, “1-benzyl-4[(5,6-dimethoxy-2-fluoro-1-indanon)-2-yl]methylpiperidine” (priority 1999, dated 2001).
